Results on eleven compounds are retold here after US7115612B2, “Arylsulfonamides as antiviral agents” (Bayer Aktiengesellschaft, priority 2001, dated 2006).

For one data set, the system named is MCMV. Put plainly: Anti-MCMV cytopathogenicity test. It counts as cell-based, murine cytomegalovirus. To be noted: for EC50: Murid betaherpesvirus 1, 120 h, MCMV-infected 3T3 mouse cells, M.O.I. 0.05–0.1, 5 days; for SI MCMV: selectivity index, 3T3 CC50 / MCMV EC50. The procedure: Anti-HCMV (Anti-Human Cytomegalovirus) and anti-MCMV (Anti-Murine Cytomegalovirus) cytopathogenicity tests:
(§1) The test compounds were employed as 50 millimolar (mM) solutions in dimethyl sulphoxide (DMSO). Ganciclovir, foscarnet and cidofovir served as reference compounds. Following the addition of in each case 2 μl of the 50, 5, 0.5 and 0.05 mM DMSO stock solutions to in each case 98μ of cell culture medium in row 2 A-H, in duplicate determinations, 1:2 dilutions with in each case 50 μl of medium were prepared up to row 11 of the 96-well plate. The wells in rows 1 and 12 each contained 50 μl of medium. 150 μl of a suspension of 1×10^4 cells (human lung fibroblasts [HELF]) (row 1=cell control) or, in rows 2–12, a mixture of HCMV-infected and non-infected HELF cells (M.O.I.=0.001–0.002), i.e. 1–2 infected cells per 1000 non-infected cells, were then pipetted into each of the wells. Row 12 (without substance) served as virus control. The final test concentrations were 250–0.0005 μM. The plates were incubated at 37° C./5% CO2 for 6 days, i.e. until all cells in the virus controls had been infected (100% cytopathogenic effect [CPE]). The wells were then fixed and stained by adding a mixture of Formalin and Giemsa Stain (30 minutes), washed with doubly distilled water and dried in a drying cabinet at 50° C. The plates were then evaluated visually using an overhead microscope (plaque multiplier from Technomara).
(§2) Compared to the process described above for HCMV, the anti-MCMV test was carried out with the following changes: a cell-free virus suspension was mixed with a concentrated cell suspension (3T3 mouse cells) and incubated for 15 minutes for adsorption of the viruses, and the suspension was then diluted with medium to 1.3×10^5 cells/ml with a final multiplicity of infection (M.O.I.) of from 0.05–0.1, and in each case 150 μl were dispensed into the wells. The incubation time was 5 days.

Another data set deals with HCMV. The experiment in a line: Anti-HCMV cytopathogenicity test. To be noted: for EC50: Human betaherpesvirus 5, 144 h, inhibition of CPE by 50% in HCMV-infected HELF cells, M.O.I. 0.001–0.002, 6 days; for SI HCMV: selectivity index = CC50 (HELF)/EC50 (HCMV). It counts as cell-based, human cytomegalovirus. The procedure:
(§3) Anti-HCMV (Anti-Human Cytomegalovirus) and anti-MCMV (Anti-Murine Cytomegalovirus) cytopathogenicity tests: The test compounds were employed as 50 millimolar (mM) solutions in dimethyl sulphoxide (DMSO). Ganciclovir, foscarnet and cidofovir served as reference compounds. Following the addition of in each case 2 μl of the 50, 5, 0.5 and 0.05 mM DMSO stock solutions to in each case 98μ of cell culture medium in row […], in duplicate determinations, 1:2 dilutions with in each case 50 μl of medium were prepared up to row 11 of the 96-well plate. The wells in rows 1 and 12 each contained 50 μl of medium. 150 μl of a suspension of 1×10^4 cells (human lung fibroblasts [HELF]) (row 1=cell control) or, in rows 2-12, a mixture of HCMV-infected and non-infected HELF cells (M.O.I.=0.001-0.002), i.e. 1-2 infected cells per 1000 non-infected cells, were then pipetted into each of the wells. Row 12 (without substance) served as virus control. The final test concentrations were 250-0.0005 μM. The plates were incubated at 37° C./5% CO2 for 6 days, i.e. until all cells in the virus controls had been infected (100% cytopathogenic effect [CPE]). The wells were then fixed and stained by adding a mixture of Formalin and Giemsa Stain (30 minutes), washed with doubly distilled water and dried in a drying cabinet at 50° C. The plates were then evaluated visually using an overhead microscope (plaque multiplier from Technomara). From the test plates, the following data were determined: EC50 (HCMV)=substance concentration in μM which inhibits the CPE (cytopathic effect) by 50% compared to the untreated virus control; SI (selectivity index)=CC50 (HELF)/EC50 (HCMV).
A general note: Damage to the host cells serves as the signal in cytopathic effect assays.

A short description of data set [1]: Cytotoxicity on 3T3 cells in the anti-MCMV cytopathogenicity test. It counts as cell-based. The settings on record: mouse, 3T3 mouse cells, 5 days incubation. How it is done:
as §1
CC50 (HELF)=substance concentration in μM at which, compared to the untreated cell control, no visible cytostatic effects on the cells were noticeable;
as §2

Data set [2] is described as follows: Cytotoxicity on HELF cells in the anti-HCMV cytopathogenicity test. It counts as cell-based. The settings on record: human lung fibroblasts (HELF cells), 6 days incubation, visual evaluation. The procedure: as §3, with “The” for “Anti-HCMV (Anti-Human Cytomegalovirus) and anti-MCMV (Anti-Murine Cytomegalovirus) cytopathogenicity tests: The”, “CC50 (HELF)=substance” for “EC50 (HCMV)=substance”, “at which,” for “which inhibits the CPE (cytopathic effect) by 50%”, “cell control, no visible cytostatic effects on the cells were noticeable;” for “virus control; SI (selectivity index)=CC50 (HELF)/EC50 (HCMV).”

As for `CN(C)c1cccc(-c2nc(-c3ccc(S(=O)(=O)Nc4cccc(NC(=O)C5(C)CC5)c4)cc3)no2)c1` [Example 2, N-(3-{[(4-{5-[3-(Dimethylamino)phenyl]-1,2,4-oxadiazol-3-yl}phenyl)sulphonyl]-amino}phenyl)-1-methylcyclopropanecarboxamide], in the data set with MCMV, it took 45 nM to reach a half-maximal effect (EC50) and the “SI MCMV” value was determined as 20. In addition, in the data set on HCMV, the EC50 (in general, the concentration that produces a half-maximal response) was determined as 50 nM and the “SI HCMV” value is less than 320. Half-maximal cytotoxicity in data set [1] (CC50 at 5 days) was put at 900 nM. The CC50 (commonly the concentration at which the toxic effect on the cells reaches its halfway point) at 6 days in data set [2] is less than 16000 nM.
For the compound `CC1(C(=O)Nc2cccc(NS(=O)(=O)c3ccc(-c4noc(-c5csc(N)n5)n4)cc3)c2)CC1` [Example 4], in the data set with MCMV, the concentration for a half-maximal effect (EC50) was found to be 15 nM and the “SI MCMV” value came to 733. For the same compound, in the data set with HCMV, a half-maximal effect (EC50) was put at 10 nM and the “SI HCMV” value is listed as greater than 6300. The compound also gave a cytotoxic concentration (CC50) at 5 days in data set [1] of 11000 nM. The compound further displayed a CC50 at 6 days in data set [2] greater than 63000 nM.
Regarding `Cc1cccc(-c2nc(-c3ccc(S(=O)(=O)Nc4cccc(NC(=O)C5(C)CC5)c4)cc3)no2)n1` [Example 5, 1-Methyl-N-{3-[({4-[5-(6-methyl-2-pyridinyl)-1,2,4-oxadiazol-3-yl]phenyl}-sulphonyl)amino]phenyl}cyclopropanecarboxamide], in the data set on MCMV, the concentration for a half-maximal effect (EC50) was found to be 14 nM and the “SI MCMV” value is greater than 2214. Also, in the data set with HCMV, the response was half-maximal at 16 nM (EC50) and the “SI HCMV” value is greater than 1000. The compound also registered a cytotoxic concentration (CC50) at 5 days in data set [1] greater than 31000 nM. In data set [2], this compound yielded a CC50 at 6 days greater than 16000 nM.
`Cc1cc(-c2nc(-c3ccc(S(=O)(=O)Nc4cccc(NC(=O)C5(C)CC5)c4)cc3)no2)[nH]n1` [Example 6, 1-Methyl-N-{3-[({4-[5-(3-methyl-1H-pyrazol-5-yl)-1,2,4-oxadiazol-3-yl]phenyl}-sulphonyl)amino]phenyl}cyclopropanecarboxamide]: in the data set with MCMV, it took 41 nM to reach a half-maximal effect (EC50) and the “SI MCMV” value is 71. In the data set on HCMV, the EC50 was determined as 20 nM and the “SI HCMV” value was 2053. The CC50 at 5 days in data set [1] came to 2900 nM. In addition, in data set [2], the CC50 at 6 days is 39000 nM.
Regarding `CC1(C(=O)Nc2cccc(NS(=O)(=O)c3ccc(-c4noc(-c5cscn5)n4)cc3)c2)CC1` [Example 7, 1-Methyl-N-{3-[({4-[5-(1,3-thiazol-4-yl)-1,2,4-oxadiazol-3-yl]phenyl}sulphonyl)-amino]phenyl}cyclopropanecarboxamide], in the data set with MCMV, it took 25 nM to reach a half-maximal effect (EC50) and the “SI MCMV” value is 480. Also, in the data set on HCMV, the 50% effective concentration (EC50) is 25 nM and the “SI HCMV” value stood at 1880. The same compound had a 50% cytotoxic concentration (CC50) at 5 days in data set [1] of 12000 nM. In data set [2], this compound registered a half-maximal cytotoxic concentration (CC50) at 6 days of 47000 nM.
Consider `Cc1cc(-c2nc(-c3ccc(S(=O)(=O)Nc4cccc(NC(=O)C5(C)CC5)c4)cc3)no2)nn1C` [Example 8, N-{3-[({4-[5-(1,5-Dimethyl-1H-pyrazol-3-yl)-1,2,4-oxadiazol-3-yl]phenyl}-sulphonyl)amino]phenyl}-1-methylcyclopropanecarboxamide], for which, in the data set on MCMV, the EC50 is 24 nM and the “SI MCMV” value is listed as greater than 163. Also, in the data set on HCMV, it took 20 nM to reach a half-maximal effect (EC50) and the “SI HCMV” value is on record as greater than 110. This compound displayed a CC50 at 5 days in data set [1] greater than 3900 nM. Also, the CC50 at 6 days in data set [2] was greater than 2200 nM.
For the compound `CC1(C(=O)Nc2cccc(NS(=O)(=O)c3ccc(-c4noc(-c5nccc6ccccc56)n4)cc3)c2)CC1` [Example 10, N-{3-[({4-[5-(1-Isoquinolinyl)-1,2,4-oxadiazol-3-yl]phenyl}sulphonyl)-amino]phenyl}-1-methylcyclopropanecarboxamide], in the data set with MCMV, the EC50 was 7 nM and the “SI MCMV” value was greater than 975. For the same compound, in the data set with HCMV, the midpoint of the response, the EC50, lay at 8 nM and the “SI HCMV” value is given as greater than 488. The same compound came in with a CC50 at 5 days in data set [1] greater than 7800 nM. In data set [2], this compound showed a CC50 at 6 days greater than 3900 nM.
`Cc1nc(-c2nc(-c3ccc(S(=O)(=O)Nc4cccc(NC(=O)C5(C)CC5)c4)cc3)no2)cs1` [Example 11, 1-Methyl-N-{3-[({4-[5-(2-methyl-1,3-thiazol-4-yl)-1,2,4-oxadiazol-3-yl]phenyl}-sulphonyl)amino]phenyl}cyclopropanecarboxamide]: in the data set with MCMV, the EC50 was 2 nM and the “SI MCMV” value was greater than 5850. For the same compound, in the data set on HCMV, the EC50 worked out at 15 nM and the “SI HCMV” value is given as greater than 1040. In data set [1], the 50% cytotoxic concentration (CC50) at 5 days is greater than 12000 nM. This compound also had a cytotoxic concentration (CC50) at 6 days in data set [2] greater than 16000 nM.
As to `CC1(C(=O)Nc2cccc(NS(=O)(=O)c3ccc(-c4noc(-c5csc(CN)n5)n4)cc3)c2)CC1` [Example 12, N-(3-{[(4-{5-[2-(Aminomethyl)-1,3-thiazol-4-yl]-1,2,4-oxadiazol-3-yl}phenyl)-sulphonyl]amino}phenyl)-1-methylcyclopropanecarboxamide], in the data set on MCMV, the midpoint of the response, the EC50, lay at 58 nM and the “SI MCMV” value is 121. Further, in the data set with HCMV, a half-maximal effect (EC50) was put at 58 nM and the “SI HCMV” value came out at 241. This compound showed a 50% cytotoxic concentration (CC50) at 5 days in data set [1] of 7000 nM. In data set [2], this compound displayed a CC50 at 6 days of 14000 nM.
As to `CC(C)(CF)C(=O)Nc1ccc(NS(=O)(=O)c2cccc(-c3noc(-c4ccccc4)n3)c2)cc1` [Example 13, 3-Fluoro-2,2-dimethyl-N-[4-({[3-(5-phenyl-1,2,4-oxadiazol-3-yl)phenyl]sulphonyl}-amino)phenyl]propanamide], in the data set with MCMV, the response was half-maximal at 30 nM (EC50) and the “SI MCMV” value is recorded as less than 533. In the data set on HCMV, it took 40 nM to reach a half-maximal effect (EC50) and the “SI HCMV” value is less than 200. This compound also showed a 50% cytotoxic concentration (CC50) at 5 days in data set [1] of less than 16000 nM. Besides, the CC50 at 6 days in data set [2] was less than 8000 nM.
As to `CC1(C(=O)Nc2ccc(NS(=O)(=O)c3cccc(-c4nnc(-c5ccccn5)s4)c3)cc2)CC1` [Example 131, 1-Methyl-N-{4-[({3-[5-(2-pyridinyl)-1,3,4-thiadiazol-2-yl]phenyl}sulphonyl)amino]phenyl}cyclopropanecarboxamide], in the data set on HCMV, the EC50 was found to be 20 nM and the “SI HCMV” value is on record as greater than 1555. The same compound came in with a cytotoxic concentration (CC50) at 6 days in data set [2] greater than 28000 nM.
